Experimental data reported in patent publication US8252935B2, “Piperidinyl and piperazinyl modulators of γ-secretase” (Janssen Pharmaceutica N.V., priority 2007, dated 2012).

Biological target: γ-secretase (Homo sapiens, UniProt P49768)
Test: Screening for γ-secretase-modulating activity in SKNBE2 cells carrying APP 695 wild type (assay of Citron et al 1997)
Format: cell-based
Settings: SKNBE2, @ 1 uM; SKNBE2 cells carrying the APP 695 wild type
Method: Screening was carried out using SKNBE2 cells carrying the APP 695—wild type, grown in DMEM/NUT-mix F12 (HAM) provided by Gibco (cat no. 31330-38) containing 5% Serum/Fe supplemented with 1% non-essential amino acids. Cells were grown to near confluency. The screening was performed using the assay as described in Citron et al (1997) Nature Medicine 3: 67.

| inhibition at 1 µM | SMILES |
| --- | --- |
| 23% | CN1C(c2cc(CC(=O)O)cc(-c3ccc(C(F)(F)F)cc3)c2)CCCC1C(F)(F)F (stereo not shown) [Example 11, [5-(1-Methyl-6-trifluoromethyl-piperidin-2-yl)-4′-trifluoromethyl-biphenyl-3-yl]-acetic acid] |
| 59% | CC(C)CC(C(=O)O)c1cc(-c2ccc(C(F)(F)F)cc2)cc(C2CCCN(Cc3ccc(Oc4ccc(F)cc4)cc3)C2)c1 (stereo not shown) [Example 48, 2-(5-{1-[4-(4-Fluoro-phenoxy)-benzyl]-piperidin-3-yl}-4′-trifluoromethyl-biphenyl-3-yl)-4-methyl-pentanoic acid] |
| 63% | CC(C)CC(C(=O)O)c1cc(-c2ccc(C(F)(F)F)cc2)cc(N2CCN(c3ccc(C(F)(F)F)cc3)CC2)c1 (stereo not shown) [Example 81, 4-Methyl-2-{4′-trifluoromethyl-5-[4-(4-trifluoromethyl-phenyl)-piperazin-1-yl]-biphenyl-3-yl}-pentanoic acid] |
| 48% | COc1ccc(CN2CCCC(c3cc(-c4ccc(C(F)(F)F)cc4)cc(C(CC(C)C)C(=O)O)c3)C2)cc1C(F)(F)F (stereo not shown) [Example 51, 2-{5-[1-(4-Methoxy-3-trifluoromethyl-benzyl)-piperidin-3-yl]-4′-trifluoromethyl-biphenyl-3-yl}-4-methyl-pentanoic acid] |
| 47% | CC(C)CC(C(=O)O)c1cc(-c2ccc(C(F)(F)F)cc2)cc(C2CCN(Cc3cc(F)cc(C(F)(F)F)c3)CC2)c1 (stereo not shown) [Example 70, 2-{5-[1-(3-Fluoro-5-trifluoromethyl-benzyl)-piperidin-4-yl]-4′-trifluoromethyl-biphenyl-3-yl}-4-methyl-pentanoic acid] |
| 49% | CC(C)CC(C(=O)O)c1cc(-c2ccc(C(F)(F)F)cc2)cc(C2CCCN(Cc3ccccc3)C2)c1 (stereo not shown) [Example 67, 2-[5-(1-Benzyl-piperidin-3-yl)-4′-trifluoromethyl-biphenyl-3-yl]-4-methyl-pentanoic acid] |
| 11% | CC(C)CCN1CCC(c2cc(-c3ccc(C(F)(F)F)cc3)cc(C(CC(C)C)C(=O)O)c2)CC1 (stereo not shown) [Example 76, 4-Methyl-2-{5-[1-(3-methyl-butyl)-piperidin-4-yl]-4′-trifluoromethyl-biphenyl-3-yl}-pentanoic acid] |
| 23% | CC(C)CC(C(=O)O)c1cc(-c2ccc(C(F)(F)F)cc2)cc(N2CCCCC2C)c1 (stereo not shown) [Example 3, 4-Methyl-2-[5-(2-methyl-piperidin-1-yl)-4′-trifluoromethyl-biphenyl-3-yl]-pentanoic acid] |
| 70% | CC(C)CC(C(=O)O)c1cc(-c2ccc(C(F)(F)F)cc2)cc(C2CCCN(S(=O)(=O)c3cccc(C(F)(F)F)c3)C2)c1 (stereo not shown) [Example 40, 4-Methyl-2-{4′-trifluoromethyl-5-[1-(3-trifluoromethyl-benzenesulfonyl)-piperidin-3-yl]-biphenyl-3-yl}-pentanoic acid] |
| 57% | CC(C)CC(C(=O)O)c1cc(-c2ccc(C(F)(F)F)cc2)cc(C2CCCN(Cc3ccc4ccccc4c3)C2)c1 (stereo not shown) [Example 46, 4-Methyl-2-[5-(1-naphthalen-2-ylmethyl-piperidin-3-yl)-4′-trifluoromethyl-biphenyl-3-yl]-pentanoic acid] |
| 8% | CC(C)/C=C/CN1CCC(c2cc(-c3ccc(C(F)(F)F)cc3)cc(C(CC(C)C)C(=O)O)c2)CC1 (stereo not shown) [Example 69, 4-Methyl-2-{5-[1-(4-methyl-pent-2-enyl)-piperidin-4-yl]-4′-trifluoromethyl-biphenyl-3-yl}-pentanoic acid] |
| 34% | CC(C)CCN1CCCCC1c1cc(-c2ccc(C(F)(F)F)cc2)cc(C(CC(C)C)C(=O)O)c1 (stereo not shown) [Example 10, 4-Methyl-2-{5-[1-(3-methyl-butyl)-piperidin-2-yl]-4′-trifluoromethyl-biphenyl-3-yl}-pentanoic acid] |
| 30% | CC(C)CC(C(=O)O)c1cc(-c2ccc(C(F)(F)F)cc2)cc(C2CCC(C(F)(F)F)CN2C)c1 (stereo not shown) [Example 13, 4-Methyl-2-[5-(1-methyl-5-trifluoromethyl-piperidin-2-yl)-4′-trifluoromethyl-biphenyl-3-yl]-pentanoic acid] |
| 70% | CC(C)CC(C(=O)O)c1cc(-c2ccc(C(F)(F)F)cc2)cc(C2CCCN(S(=O)(=O)c3cccc4cnccc34)C2)c1 (stereo not shown) [Example 41, 2-{5-[1-(Isoquinoline-5-sulfonyl)-piperidin-3-yl]-4′-trifluoromethyl-biphenyl-3-yl}-4-methyl-pentanoic acid] |
| 51% | CC(C)CCC(c1ccc(C(F)(F)F)cc1)N1CCC(c2cc(-c3ccc(C(F)(F)F)cc3)cc(C(CC(C)C)C(=O)O)c2)CC1 (stereo not shown) [Example 71, 4-Methyl-2-(5-{1-[4-methyl-1-(4-trifluoromethyl-phenyl)-pentyl]-piperidin-4-yl}-4′-trifluoromethyl-biphenyl-3-yl)-pentanoic acid] |
| 80% | CC(C)CC(C(=O)O)c1cc(-c2ccc(C(F)(F)F)cc2)cc(C2CCCN(C(c3ccccc3)c3ccccc3)C2)c1 (stereo not shown) [Example 54, 2-[5-(1-Benzhydryl-piperidin-3-yl)-4′-trifluoromethyl-biphenyl-3-yl]-4-methyl-pentanoic acid] |

| inhibition at 1 µM | SMILES |
| --- | --- |
| 6% | CC(C)CC(C(=O)O)c1cc(-c2ccc(C(F)(F)F)cc2)cc(C2CCN(c3ccc(C(F)(F)F)cc3)CC2)c1 (stereo not shown) [Example 72, 4-Methyl-2-{4′-trifluoromethyl-5-[1-(4-trifluoromethyl-phenyl)-piperidin-4-yl]-biphenyl-3-yl}-pentanoic acid] |
| 45% | CC(C)CC(C(=O)O)c1cc(-c2ccc(C(F)(F)F)cc2)cc(C2CCCN(c3ccc(F)c(F)c3)C2)c1 (stereo not shown) [Example 55, 2-{5-[1-(3,4-Difluoro-phenyl)-piperidin-3-yl]-4′-trifluoromethyl-biphenyl-3-yl}-4-methyl-pentanoic acid] |
| 46% | CC(C)CC(C(=O)O)c1cc(-c2ccc(C(F)(F)F)cc2)cc(C2CCN(Cc3cc(F)cc(F)c3)CC2)c1 (stereo not shown) [Example 75, 2-{5-[1-(3,5-Difluoro-benzyl)-piperidin-4-yl]-4′-trifluoromethyl-biphenyl-3-yl}-4-methyl-pentanoic acid] |
| 36% | CC(C)CCCN1CCC(c2cc(-c3ccc(C(F)(F)F)cc3)cc(C(CC(C)C)C(=O)O)c2)CC1 (stereo not shown) [Example 77, 4-Methyl-2-{5-[1-(4-methyl-pentyl)-piperidin-4-yl]-4′-trifluoromethyl-biphenyl-3-yl}-pentanoic acid] |
| 0% | CCN1CCCC(c2cc(-c3ccc(C(F)(F)F)cc3)cc(C(CC(C)C)C(=O)O)c2)C1 (stereo not shown) [Example 66, 2-[5-(1-Ethyl-piperidin-3-yl)-4′-trifluoromethyl-biphenyl-3-yl]-4-methyl-pentanoic acid] |
| 45% | CCC1CCCCN1c1cc(-c2ccc(C(F)(F)F)cc2)cc(C(CC(C)C)C(=O)O)c1 (stereo not shown) [Example 2, 2-[5-(2-Ethyl-piperidin-1-yl)-4′-trifluoromethyl-biphenyl-3-yl]-4-methyl-pentanoic acid] |
| 70% | COc1ccc(CN2C(c3cc(-c4ccc(C(F)(F)F)cc4)cc(C(CC(C)C)C(=O)O)c3)CCCC2C(F)(F)F)cc1 (stereo not shown) [Example 7, 2-{5-[1-(4-Methoxy-benzyl)-6-trifluoromethyl-piperidin-2-yl]-4′-trifluoromethyl-biphenyl-3-yl}-4-methyl-pentanoic acid] |
| 55% | CC(C)CC(C(=O)O)c1cc(-c2ccc(C(F)(F)F)cc2)cc(C2CCCN(C(=O)c3ccc(C(F)(F)F)cc3)C2)c1 (stereo not shown) [Example 43, 4-Methyl-2-{4′-trifluoromethyl-5-[1-(4-trifluoromethyl-benzoyl)-piperidin-3-yl]-biphenyl-3-yl}-pentanoic acid] |
| 68% | CC(C)CC(C(=O)O)c1cc(-c2ccc(C(F)(F)F)cc2)cc(C2CCC(C(F)(F)F)N(Cc3cccc(C(F)(F)F)c3)C2)c1 (stereo not shown) [Example 28, 4-Methyl-2-{4′-trifluoromethyl-5-[6-trifluoromethyl-1-(3-trifluoromethyl-benzyl)-piperidin-3-yl]-biphenyl-3-yl}-pentanoic acid] |
| 28% | CC(C)CC(C(=O)O)c1cc(-c2ccc(C(F)(F)F)cc2)cc(N2CCN(c3ccc(F)c(F)c3)CC2)c1 (stereo not shown) [Example 79, 2-{5-[4-(3,4-Difluoro-phenyl)-piperazin-1-yl]-4′-trifluoromethyl-biphenyl-3-yl}-4-methyl-pentanoic acid] |
| 52% | COCCCC1CCCCN1c1cc(-c2ccc(C(F)(F)F)cc2)cc([C@@H](CC(C)C)C(=O)O)c1 (stereo partly drawn) [Example 60, (R)-2-{5-[2-(3-Methoxy-propyl)-piperidin-1-yl]-4′-trifluoromethyl-biphenyl-3-yl}-4-methyl-pentanoic acid] |
| 54% | CC(C)CC(C(=O)O)c1cc(-c2ccc(C(F)(F)F)cc2)cc(C2CCCN(Cc3ccc4nnsc4c3)C2)c1 (stereo not shown) [Example 49, 2-[5-(1-Benzo[1,2,3]thiadiazol-6-ylmethyl-piperidin-3-yl)-4′-trifluoromethyl-biphenyl-3-yl]-4-methyl-pentanoic acid] |
| 8% | CC(C)CC(C(=O)O)c1cc(-c2ccc(C(F)(F)F)cc2)cc(N2CCC(F)(F)CC2)c1 (stereo not shown) [Example 5, 2-(5-(4,4-difluoropiperidin-1-yl)-4′-(trifluoromethyl)biphenyl-3-yl)-4-methylpentanoic acid] |
| 35% | CC(C)CCN1C(c2cc(-c3ccc(C(F)(F)F)cc3)cc(C(F)(F)C(=O)O)c2)CCCC1C(F)(F)F (stereo not shown) [Example 22, Difluoro-{5-[1-(3-methyl-butyl)-6-trifluoromethyl-piperidin-2-yl]-4′-trifluoromethyl-biphenyl-3-yl}-acetic acid] |
| 23% | CC(C)CC(C(=O)O)c1cc(-c2ccc(C(F)(F)F)cc2)cc(C2CCC(C(F)(F)F)N(Cc3ccncc3)C2)c1 (stereo not shown) [Example 25, 4-Methyl-2-[5-(1-pyridin-4-ylmethyl-6-trifluoromethyl-piperidin-3-yl)-4′-trifluoromethyl-biphenyl-3-yl]-pentanoic acid] |
